# Test results as given in patent US9625458B2, “Biosensor” (priority 2002, dated 2017).
# How the values were obtained:
# [1] = target: T1, E. coli dipeptide binding protein (DPP), fluorophore-conjugated cysteine mutants (Escherichia coli, UniProt P23847); test: Ligand affinity of dipeptide BP fluorescent conjugates (Kd range); settings: range over conjugates, n=21
# T1 construct: several single-Cys mutants (e.g. K394C) with fluorophore
# Description: Molecular Cloning. […] Amplified products were cloned into one of the protein expression vectors pAED4 (Doering, “Functional and structural studies of a small f-actin binding domain” in Ph.D. thesis, Massachusetts Institute of Technology, 1992); pKK223-3 (Brosius & Holy, Proc. Natl. Acad. Sci. USA 81:6929-6933, 1984); or pET vectors (Studier et al., Meth. Enzymol. 185:60-89, 1990) (Novagen). N-terminal oligonucleotide primers were designed to clone only the processed periplasmic form, deleting the signal sequence. The C-terminal primer was designed to append the sequence Gly-Ser-Gly-(His)n or Gly-Ser-(His)n, where n=5, 6, or 10. Two tandem stop codons (TAATGA) follow the last His codon. […] Additionally the sequence of Fe(III) BP was mutated by substitution of Glu57 with Asp to raise the Kd to a concentration range conveniently measured using Fe(III) citrate.
# Fluorophore conjugation to cysteine-substituted bPBPs. […] The efficiency of reporter group attachment was assessed by determination of unreacted thiol with Ellman's reagent (Ellman, Arch. Biochem. Biophys. 74:443-450, 1958) or by measuring the ratio of fluorophore to protein from absorbance spectra of the purified conjugate.
# Fluorimetry. […] Fluorescence emission spectra were acquired with excitation and emission slit widths of 4 and 8 nm, respectively. […]
# [2] = target: T2, E. coli dipeptide binding protein variant D450C, fluorophore conjugate (Escherichia coli, UniProt P23847, D478C); test: Fluorimetric titration of fluorophore conjugates; settings: peristeric site
# T2 construct: initiator methionine (N); Gly-Ser-Gly-(His)n or Gly-Ser-(His)n (n = 5, 6 or 10) (C); made in house; host or cells: E. coli BL21-DE3
# T2 sequence (P23847 29-535 D478C): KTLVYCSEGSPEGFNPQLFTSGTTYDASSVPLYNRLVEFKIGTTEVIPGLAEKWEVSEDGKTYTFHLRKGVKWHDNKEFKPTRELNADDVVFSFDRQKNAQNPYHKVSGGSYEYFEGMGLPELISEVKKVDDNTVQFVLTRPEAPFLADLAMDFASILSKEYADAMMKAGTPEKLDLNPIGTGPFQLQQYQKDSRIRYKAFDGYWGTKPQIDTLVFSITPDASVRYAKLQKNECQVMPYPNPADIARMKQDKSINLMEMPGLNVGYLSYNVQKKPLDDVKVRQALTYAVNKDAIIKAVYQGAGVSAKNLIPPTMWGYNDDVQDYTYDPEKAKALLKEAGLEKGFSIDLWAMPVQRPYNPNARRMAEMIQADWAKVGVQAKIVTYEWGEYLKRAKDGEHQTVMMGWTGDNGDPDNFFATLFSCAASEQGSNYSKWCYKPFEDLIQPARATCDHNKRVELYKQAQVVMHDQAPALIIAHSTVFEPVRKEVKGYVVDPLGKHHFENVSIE
# Description: (§1) Molecular Cloning. […] Amplified products were cloned into one of the protein expression vectors pAED4 (Doering, “Functional and structural studies of a small f-actin binding domain” in Ph.D. thesis, Massachusetts Institute of Technology, 1992); pKK223-3 (Brosius & Holy, Proc. Natl. Acad. Sci. USA 81:6929-6933, 1984); or pET vectors (Studier et al., Meth. Enzymol. 185:60-89, 1990) (Novagen). N-terminal oligonucleotide primers were designed to clone only the processed periplasmic form, deleting the signal sequence. The C-terminal primer was designed to append the sequence Gly-Ser-Gly-(His)n or Gly-Ser-(His)n, where n=5, 6, or 10. Two tandem stop codons (TAATGA) follow the last His codon. […] Single amino acid substitutions were generated by overlapping PCR mutagenesis (Ho et al., Gene 77:51-59, 1989). All clones and mutations were confirmed by nucleotide sequencing. In the case of arabinose BP, the single cysteine in the wild type sequence was replaced by alanine to eliminate the possibility of reporter group conjugation to this thiol (Miller et al., J. Biol. Chem. 254:7521-7528, 1979). Additionally the sequence of Fe(III) BP was mutated by substitution of Glu57 with Asp to raise the Kd to a concentration range conveniently measured using Fe(III) citrate.
# (§2) Fluorophore conjugation to cysteine-substituted bPBPs. Thiol-reactive fluorophores obtained from Molecular Probes (Eugene, Oreg.) were 5-iodoacetamidofluorescein (fluorescein); N-(1-pyrene) iodoacetamide (pyrene); N,N′-dimethyl-N-(iodoacetyl)-N′-(7-nitrobenz-2-oxa-1,3-diazol-4-yl)ethylenediamide (NBD); N-((2-(iodoacetoxy)ethyl)-N-methyl)amino-7-nitrobenz-2-oxa-1,3-diazole (NBDE); and 6-acryloyl-2-dimethylaminonaphthalene (acrylodan). The styryl and naphthyl dyes JPW4039, JPW4042, and JPW4045 (FIG. 3) were synthesized at the University of Connecticut. All fluorophore conjugation steps were typically carried out at room temperature. To protein at a concentration of 100 μM was added tris-(2-carboxyethyl)phosphine HCl to a five-fold molar excess to reduce intermolecular disulfide bonds. A thiol-reactive fluorophore (20 to 25 mM in acetonitrile or dimethyl sulfoxide) was added in small aliquots to a five-fold molar excess over protein. Conjugation proceeded in the dark at room temperature for 4 hours, or overnight at 4° C. Separation of protein from unreacted fluorophore was achieved by exhaustive dialysis or by size-exclusion chromatography. The efficiency of reporter group attachment was assessed by determination of unreacted thiol with Ellman's reagent (Ellman, Arch. Biochem. Biophys. 74:443-450, 1958) or by measuring the ratio of fluorophore to protein from absorbance spectra of the purified conjugate.
# (§3) Fluorimetry. All measurements were conducted with an SLM Aminco-Bowman series 2 fluorimeter, with sample stirring at 25° C. Fluorescence emission spectra were acquired with excitation and emission slit widths of 4 and 8 nm, respectively. Photomultiplier tube potential was maintained between 400 and 800 volts. Protein concentrations were in the range of 50 to 1000 nM. Fluorophore-specific excitation was at the following approximate wavelengths: tryptophan, 290 nm; acrylodan, 390 nm; fluorescein, 485 nm; pyrene, 340 nm; NBD and NBDE, 490 nm; JPW4039, 485 nm; JPW4042, 470 nm; JPW4045, 470 nm.
# (§4) Corrections were made for dilution of the protein and for background signal from buffer. Binding curves were fit to binding isotherms using equation 3 or 4, as appropriate.
# (§5) Analyte affinity measurements. […] The emission wavelength monitored was that of maximum difference in intensity between the ligand-free and bound states. For each conjugate, fluorescence intensiometric observations were fit to a hyperbolic binding isotherm for a two-state model (Marvin et al., Proc. Natl. Acad. Sci. USA 94:4366-4371, 1997): […]
# [3] = target: T3, E. coli dipeptide binding protein variant K394C, fluorophore conjugate (Escherichia coli, UniProt P23847, K422C); test: Fluorimetric titration of fluorophore conjugates
# T3 construct: initiator methionine (N); Gly-Ser-Gly-(His)n or Gly-Ser-(His)n (n = 5, 6 or 10) (C); made in house; host or cells: E. coli BL21-DE3
# T3 sequence (P23847 29-535 K422C): as the sequence (P23847 29-535 D478C) above, with K394C, C450D counted along it
# Description: as §1, §2, §3, §4, §5
# [4] = target: T4, E. coli dipeptide binding protein variant R141C, fluorophore conjugate (Escherichia coli, UniProt P23847, R169C); test: Fluorimetric titration of fluorophore conjugates; settings: peristeric site
# T4 construct: initiator methionine (N); Gly-Ser-Gly-(His)n or Gly-Ser-(His)n (n = 5, 6 or 10) (C); made in house; host or cells: E. coli BL21-DE3
# T4 sequence (P23847 29-535 R169C): as the sequence (P23847 29-535 D478C) above, with R141C, C450D counted along it
# Description: as §1, §2, §3, §4, §5
# [5] = target: T5, E. coli dipeptide binding protein variant S111C, fluorophore conjugate (Escherichia coli, UniProt P23847, S139C); test: Fluorimetric titration of fluorophore conjugates; settings: peristeric site
# T5 construct: initiator methionine (N); Gly-Ser-Gly-(His)n or Gly-Ser-(His)n (n = 5, 6 or 10) (C); made in house; host or cells: E. coli BL21-DE3
# T5 sequence (P23847 29-535 S139C): as the sequence (P23847 29-535 D478C) above, with S111C, C450D counted along it
# Description: as §1, §2, §3, §4, §5
# [6] = target: T6, E. coli dipeptide binding protein variant T44C, fluorophore conjugate (Escherichia coli, UniProt P23847, T72C); test: Fluorimetric titration of fluorophore conjugates; settings: peristeric site
# T6 construct: initiation methionine (N); Gly-Ser-Gly-(His)n or Gly-Ser-(His)n (C); made in house; host or cells: E. coli BL21-DE3
# T6 sequence (P23847 29-535 T72C): as the sequence (P23847 29-535 D478C) above, with T44C, C450D counted along it
# Description: as §1, §2, §3, §4, §5
# [7] = target: T7, E. coli dipeptide binding protein variant W315C, fluorophore conjugate (Escherichia coli, UniProt P23847, W343C); test: Fluorimetric titration of fluorophore conjugates; settings: peristeric site
# T7 construct: initiation methionine (N); Gly-Ser-Gly-(His)n or Gly-Ser-(His)n (C); made in house; host or cells: E. coli BL21-DE3
# T7 sequence (P23847 29-535 W343C): as the sequence (P23847 29-535 D478C) above, with W315C, C450D counted along it
# Description: as §1, §2, §3, §4, §5
# T1 sequence (P23847 29-535, stated change not applied): as the sequence (P23847 29-535 D478C) above, with C450D counted along it
compound,measurement,setting,value
"CC(C)C[C@H](NC(=O)CN)C(=O)O [Gly-Leu, Gly-Leu dipeptide]",range of Kd,[1],6 to 93000 nM
same,Kd,[2]; Acrylodan conjugate,11000 nM
same,Kd,[2]; JPW4039 conjugate,910 nM
same,Kd,[2]; JPW4042 conjugate,1500 nM
same,Kd,[2]; JPW4045 conjugate,2000 nM
same,Kd,"[3]; Kd, Acrylodan conjugate, peristeric site",23000 nM
same,Kd,"[3]; Kd, Fluorescein conjugate, peristeric site",93000 nM
same,Kd,"[3]; Kd, JPW4039 conjugate, peristeric site",30000 nM
same,Kd,"[3]; Kd, JPW4042 conjugate, peristeric site",78000 nM
same,Kd,"[3]; Kd, NBD conjugate, peristeric site",12 nM
same,Kd,"[3]; affinity for Gly-Leu dipeptide (Kd), K394C-NBD conjugate",6 nM
same,Kd,"[3]; affinity for Gly-Leu dipeptide (Kd), K394C-fluorescein conjugate",93000 nM
same,Kd,[4]; Acrylodan conjugate,2300 nM
same,Kd,[4]; Fluorescein conjugate,38000 nM
same,Kd,[5]; Acrylodan conjugate,4800 nM
same,Kd,[5]; Fluorescein conjugate,2600 nM
same,Kd,[5]; JPW4039 conjugate,34000 nM
same,Kd,[5]; JPW4042 conjugate,15800 nM
same,Kd,[6]; Fluorescein conjugate,640 nM
same,Kd,[6]; NBD conjugate,6 nM
same,Kd,[7]; Acrylodan conjugate,130 nM
same,Kd,[7]; JPW4039 conjugate,1000 nM
same,Kd,[7]; JPW4045 conjugate,3200 nM
same,Kd,[7]; NBD conjugate,60 nM
